Legend:
[1] = system: absolute ethanol-induced ulcer; assay: absolute ethanol-induced ulcer model (gastroprotective activity); assay type: in vivo, Male Wistar rats; conditions: 20 mg/kg oral
Procedure: The absolute ethanol-induced ulcer model was used for evaluation of gastroprotective activity. Groups of 6 Male Wistar rats were used. Treated groups received either total alcohol extracts (SA or SR) at doses of about 250 mg/kg or about 500 mg/kg. […] A treatment group received Omeprazole (about 20 mg/kg) and a control group received water (about 5 mL/kg). All treatments were administered orally to all groups. […] After one hour all rats were sacrificed, the stomachs were rapidly removed, opened along their greater curvature, and gently rinsed under running tap water. The number and severity of ulcers were visually counted and the ulcer index was calculated. Ulcer indices (mm) were calculated as the sum of the total length of long ulcers and petechial lesions in each group of rats divided by its number. Percent protection was determined according to the following formula: [formula] All values were expressed as mean+S.D. Comparisons between means were carried out using a one-way ANOVA test followed by the Tukey HSD test using SPSS, version 14 (SPSS, Chicago, Ill.). Differences at p<0.05 were considered statistically significant.

[2] = system: ulcerative colitis induced by acetic acid; assay: acetic acid-induced ulcerative colitis; assay type: in vivo, Male Wistar rats; conditions: 0.1 mg/kg oral once daily, 5 days
Procedure: All medications were administered orally, once daily for 5 consecutive days and the first dose was administered about 2 h after ulcerative colitis induction by about 2 mL (4%, v/v) acetic acid in saline. Ulcer indices (mm) were calculated as the sum of the total length of long ulcers and petechial lesions in each group of rats divided by its number. All values were expressed as mean+S.D. Comparisons between means were carried out using a one-way ANOVA test followed by the Tukey HSD test using SPSS, version 14 (SPSS, Chicago, Ill.). Differences at p<0.05 were considered statistically significant.

Row | SMILES | Score ([1]; 30 min before ethanol) | % protection ([1]; ethanol-induced ulcer) [%] | % protection [2] [%]
1 | COc1ccc2[nH]c([S+]([O-])Cc3ncc(C)c(OC)c3C)nc2c1 (stereo not drawn) [Omeprazole] | 2.50 | 45.83 | 
2 | C[C@@H]1C[C@H]2[C@@H]3CCC4=CC(=O)C=C[C@]4(C)[C@@]3(F)[C@@H](O)C[C@]2(C)[C@@]1(O)C(=O)CO [Dexamethasone, dexamethasone] |  |  | 66.36

Reference: patent publication US10137162B1, “Gastroprotective extracts of Sonchus oleraceus L” (KING SAUD UNIVERSITY, priority 2018, dated 2018)
